# What was measured:
# umami taste [1] = experiment: Evaluation of amides 1 and 4 in a pork flavor, trained panel; assay type: in vivo, human; conditions: amide at 20 ppm in pork flavor; scale 0 to 10; 5 panelists; pork flavor alone = 4.5
# Protocol: 3) Evaluation of Amides 1 and 4 in a Pork Flavor
# Amides 1 and 4 were evaluated at 20 ppm by 5 trained panelists in a pork flavor on a blind test basis as described above.
# umami taste [2] = experiment: Umami intensity and liking of amide 1, an ingredient and their blend in hot mineral water, trained panel; assay type: in vivo, human
# Protocol: Pat. No. 7,807,206 (containing Rebaudioside A and stevioside), sea salt, succinic acid, yeast extract, hydrolyzed corn protein, or hydrolyzed wheat gluten) and a blend of the amide with the ingredient were weighed and hot mineral water was added to each sample according to the dosages indicated in each experiments. The samples were stirred in order to ensure the solubilisation of the ingredients. Each sample was coded, and tasted in a random order by 5 trained panelists. […] The panelists were also asked to describe the samples.
# [3] = Table 10, scale 1-10, MSG 0.04%, Amide 1 20 ppm, glucosylated stevosides 8 ppm, blend 20 ppm + 8 ppm
# [4] = Table 11, scale 1-10, MSG 0.04%, Amide 1 20 ppm, Sea Salt 0.03%, blend 20 ppm + 0.03%
# [5] = Table 12, scale 1-10, MSG 0.04%, Amide 1 20 ppm, Succinic acid 36 ppm, blend 20 ppm + 36 ppm
# [6] = Table 13, scale 1-10, MSG 0.04%, Amide 1 20 ppm, Yeast extract 60 ppm, blend 20 ppm + 60 ppm
# [7] = Table 14, scale 1-10, MSG 0.04%, Amide 1 20 ppm, Yeast extract 175 ppm, blend 20 ppm + 175 ppm
# [8] = Table 15, scale 1-10, MSG 0.04%, Amide 1 10 ppm, Yeast extract 60 ppm, blend 10 ppm + 60 ppm
# [9] = Table 16, scale 1-10, MSG 0.04%, Amide 1 20 ppm, Hydrolized corn protein 40 ppm, blend 20 ppm + 40 ppm
# [10] = Table 17, scale 1-10, MSG 0.04%, Amide 1 20 ppm, Hydrolized corn protein 320 ppm, blend 20 ppm + 320 ppm
# [11] = Table 18, scale 1-10, MSG 0.04%, Amide 1 20 ppm, Hydrolized wheat gluten 100 ppm, blend 20 ppm + 100 ppm
# [12] = Table 19, scale 1-10, MSG 0.04%, Amide 1 10 ppm, Nature Pep 971481 100 ppm, blend 10 ppm + 100 ppm
Structure (SMILES),Umami intensity (umami taste [1]),Umami (umami taste [2]; [3]),Umami (umami taste [2]; [4]),Umami (umami taste [2]; [5]),Umami (umami taste [2]; [6]),Umami (umami taste [2]; [7]),Umami (umami taste [2]; [8]),Umami (umami taste [2]; [9]),Umami (umami taste [2]; [10]),Umami (umami taste [2]; [11]),Umami (umami taste [2]; [12])
"COc1ccc(CCNC(=O)/C=C/c2ccc(OC)c(OC)c2)cc1 [Amide 1, (E)-3-(3,4-dimethoxyphenyl)-N-(4-methoxyphenethyl)acrylamide]",6,4.8,3.3,3.7,4.5,4.5,2.5,4.2,1.7,4.0,3.7
"COc1cccc(CCNC(=O)/C=C/c2ccc(OC)c(OC)c2)c1 [Amide 4, (E)-3-(3,4-dimethoxyphenyl)-N-(3-methoxyphenethyl)acrylamide]",7,–,–,–,–,–,–,–,–,–,–
"N[C@@H](CCC(=O)O)C(=O)[O-].[Na+] [MSG, monosodium glutamate, reference compound]",–,5.8,5.8,4.2,5.5,5.5,4.0,5.4,3.0,5.5,7.2
"O=C(O)CCC(=O)O [Succinic acid, succinic acid]",–,–,–,1.0,–,–,–,–,–,–,–
